Columns and labels:
acute insulin resistance = details: ref [6]; cited from earlier work
From the text: Acute insulin resistance induced by tumor necrosis factor alpha (TNFα) or dexamethasone could be ameliorated by the antioxidants N-acetylcysteine, manganese (III) tetrakis (4-benzoicacid) porphyrin (MnTBAP), or by induction of antioxidant enzymes such as superoxide dismutase or catalase.

[1] = tested on: patients (chronic insulin resistance); details: chronic antioxidant therapy, e.g., in diabetic neuropathy; ref [7]; cited from earlier work
From the text: Moreover, using the so-called “breakthrough” therapy, a 2–4 week decrease in glucotoxicity is able to normalize glycemia by decreasing insulin resistance for months or years. Because clinical insulin resistance can be reverted, it is not an alteration of the DNA, but rather some type of protein abnormality; this can be hypothesized given the background of this oxidative stress-induced clinical condition.

type 2 diabetic patients = details: ref [40]; cited from earlier work
From the text: Elevated levels of m- and/or o-Tyr have been described in the vascular wall of cynomolgus monkeys as well as in cataract lenses.

[2] = target: T1, C-terminal SH2 domain of PI3K regulatory subunit 1 (Homo sapiens, UniProt P27986); assay: Fluorescence polarization binding, PI3K-SH2(C); details: competitive FP; statement for the SH2 domains
T1 construct: The N- and C-terminal SH2 domains (regions 321–433 and 614–724, respectively) of the PI3K regulatory subunit; hexa-histidine (inferred: expressed and purified like His-tagged PTP1B); made in house; host or cells: Escherichia coli (bacterial expression vector; strain BL21 (DE3) is stated only for PTP1B)
From the text: The N- and C-terminal SH2 domains (regions 321–433 and 614–724, respectively) of the PI3K regulatory subunit were subcloned into a bacterial expression vector by PCR and then similarly expressed and purified as described above.
For in vitro fluorescence polarization (FP)-based affinity measurements, a peptide containing the phosphorylated tyrosine residue 632 of human IRS1 was labelled by lys-carboxyfluorescenine at its C-terminal end (GRKGSGD(pY)MPMSPKS(K-FITC). Synthesis of the labelled peptide was done by GenScript Inc. For competitive FP measurements, unlabeled peptides with either natural (para-phospho-Tyr) or unnatural (ortho-phospho-Tyr and meta-phospho-Tyr) phosphorylated amino acids (core sequence GRKGSGD(pY)MPMSPKV in all three cases) were used. Direct titration with the labelled peptide was done by generating a dilution series of the protein (N-terminal and C-terminal SH2 domains of PI3K regulatory subunit 1), with a constant (100 nM) peptide concentration in a standard buffer (100 mM NaCl, 20 mM TRIS pH = 8.0, 0.05% Brij-35 detergent). Competitive titrations were done by keeping the concentration of the protein-labelled peptide mixture constant (150 nM and 1500 nM C-terminal and N-terminal domain, respectively, with 100 nM labelled peptide) and varying the concentration of the unlabeled competitor peptide instead. […]

[3] = tested on: human PTP1B catalytic domain (1–299 aa); assay: PTP1B dephosphorylation assay, capillary electrophoresis; assay type: biochemical; details: 80 μM phosphopeptide, 25 nM PTP1B, 50 mM TRIS, 150 mM NaCl, 1 mM EDTA, 2 mM DTT, pH 7.4
Protocol: The cDNA segment encoding the human PTP1B catalytic domain (1–299 aa) was PCR amplified from a HEK293T cDNA pool and inserted into the pBH4 vector with BamHI and NotI restriction sites. This construct is only missing the C-terminal flexible region and the membrane binding segment of PTP1B. The protein was expressed with an N-terminal hexa-histidine tag. Recombinant active PTP1B was expressed in the Escherichia coli BL21 (DE3) bacterial strain. Briefly, cells were grown in an ampicillin-containing LB medium at 37 °C to OD = 0.6 and then cooled down to 18 °C and induced by the addition of 0.05 mM isopropyl-beta-D-thiogalactoside (IPTG). After an overnight expression at 18 °C, the pellet was harvested and washed with phosphate buffered saline (PBS). Following freezing at −80 °C, cells were lysed in an appropriate buffer (300 mM NaCl, 50 mM phosphate, 10 mM imidazole, 2 mM beta-mercapto-ethanol, 0.1% IGEPAL with pH = 8.0, and 0.5 mM benzamidine with 0.5 mM PMSF protease inhibitors added) with the help of sonification. The lysate was centrifuged at 20,000 rpm for 30 min and the supernatant (~30 mL) was mixed with 1 mL Ni-NTA resin slurry (50%). After 45 min incubation at 4 °C, the mixture was transferred to gravity columns and washed with 10-10 mL of imidazole (40 mM imidazole, 300 mM NaCl, 50 mM phosphate, pH = 8.0 with 2 mM beta-mercapto-ethanol) and high salt (1000 mM NaCl, 20 mM imidazole, 20 mM TRIS, pH = 8.0 with 2 mM beta-mercapto-ethanol) containing wash buffers, each. PTP1B was eluted by applying 5 mL elution buffer (400 mM imidazole, 200 mM NaCl, 10% glycerol, 20 mM TRIS, pH = 8.0, with 0.1% IGEPAL). The eluted protein was supplemented with tricarboxy-ethyl-phosphine (TCEP) reducing agent at 2 mM concentration.
The Ni-NTA purified PTP1B protein was further purified by anion exchange chromatography. […]
Background electrolyte (BGE) components phosphoric acid and triethylamine were purchased from Sigma (St. Louis, MO, USA) and from Merck GmbH (Darmstadt, Germany), respectively. […] On-line absorption at 200 nm was monitored by DAD UV-Vis detector. […]

T1 sequence (P27986 614-724): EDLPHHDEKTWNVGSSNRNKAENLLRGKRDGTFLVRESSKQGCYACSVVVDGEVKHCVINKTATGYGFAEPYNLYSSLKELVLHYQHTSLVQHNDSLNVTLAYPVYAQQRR

O=C(O)c1ccc(-c2c3nc(c(-c4ccc(C(=O)O)cc4)c4ccc([n-]4)c(-c4ccc(C(=O)O)cc4)c4nc(c(-c5ccc(C(=O)O)cc5)c5ccc2[n-]5)C=C4)C=C3)cc1.[Mn+3] [MnTBAP, manganese (III) tetrakis (4-benzoicacid) porphyrin]
acute insulin resistance induced by TNFα or dexamethasone (acute insulin resistance): ameliorated

CC(=O)N[C@@H](CS)C(=O)O [N-acetylcysteine]
acute insulin resistance induced by TNFα or dexamethasone (acute insulin resistance): ameliorated

O=C(O)CCCCC1CCSS1 (stereo not drawn) [alpha-lipoic acid]
chronic insulin resistance [1]: able to improve chronic insulin resistance

Oc1ccc(/C=C/c2cc(O)cc(O)c2)cc1 [resveratrol]
insulin resistance (type 2 diabetic patients): improvement in insulin resistance
urinary excretion of o-Tyr (type 2 diabetic patients): decrease in urinary excretion of o-Tyr

GRKGSGDF(2-PO4H2)MPMSPKV [GRKV6, phospho-ortho-Tyr containing IRS-1 YXXM motif peptide]
binding affinity compared to phospho-para-Tyr peptide (GRKV2), PI3K-SH2(C) [2]: greatly reduced binding affinity
dephosphorylation by PTP1B [3]: incapable of dephosphorylating

GRKGSGDF(3-PO4H2)MPMSPKV [GRKV4, phospho-meta-Tyr containing IRS-1 YXXM motif peptide]
binding affinity compared to phospho-para-Tyr peptide (GRKV2), PI3K-SH2(C) [2]: greatly reduced binding affinity
dephosphorylation by PTP1B [3]: incapable of dephosphorylating

GRKGSGDF(4-PO4H2)MPMSPKV [GRKV2, phospho-para-Tyr containing IRS-1 YXXM motif peptide]
dephosphorylation by PTP1B [3]: apart from the p-Tyr peptide, none of the modified Tyr containing peptides could be dephosphorylated by PTP1B

— PMC9138545, “Incorporation of Oxidized Phenylalanine Derivatives into Insulin Signaling Relevant Proteins May Link Oxidative Stress to Signaling Conditions Underlying Chronic Insulin Resistance” (Biomedicines, 2022)
